In article PMC9120013, “Ribosome inhibition by C9ORF72-ALS/FTD-associated poly-PR and poly-GR proteins revealed by cryo-EM” (Nature Communications, 2022):
Read-outs that look alike come from different tables or passages of the source. Ends that are not written are not given here.

Tests used:
[1] = system: ribosomes on endogenous beta-globin mRNA in RRL; assay: Toeprinting of 80S and 4-5-mer polysome fractions on beta-globin mRNA; assay type: biochemical, rabbit; conditions: for Ratio (START to CDS) / Normalized ratio START/ORF: 80S fraction, primer A, Fig. 2f independent repeat; for Normalized ratio START/ORF: no inhibitor = 1; for normalized ratio START to CDS, MEAN: 4-5-mer, primer B, mean of ten 20 bp windows
Experimental: Toeprinting analyses were carried out similarly to those in refs. [51],[74], using 80S and polysome (4–5-some) fractions collected from polysome profiles as described in “Polysome Profiles” except that reactions were doubled in size (200 μL), performed at 37 °C, and were stopped with ice-cold 1xAMV Buffer (50 mM Tris-HCl pH 8.3, 50 mM KCl, 5 mM MgCl2) with 200 μg/ml cycloheximide before being separated on at 10–35% sucrose gradient in 1xAMV buffer with 0.5 mM spermidine and 1 mM DTT. 600 μl of each fraction (80S or 4–5-mer) was supplemented with 10 mM DTT. Then 10 U of AMV reverse transcriptase (Promega), 120 nmol dNTPs, and 120 pmol of a 5'[6-carboxyfluorescein (FAM)]-labeled primer (IDT-DNA) were added. Two primers specific to the endogenous beta-globin mRNA in RRL were used in separate reactions: 5′-(FAM)-GGACTCGAAGAACCTCTG (as in ref. [74]) annealed 136 nucleotides downstream of the AUG or 5′-(FAM)-[…] annealed to the end of the 3'-UTR. Primers were extended at 37 °C for 30 min, and then the reaction were extracted in 1:1 phenol:chloroform, supplemented with 1/10 volume of 3 M sodium acetate pH 5.2, and precipitated with 2.5 volumes of 100% ethanol. Pellets were resuspended in 10 μl of deionized formamide (Applied Biosystems) with 1/20 volume of a 35-500 nucleotide orange-dye labeled DNA size standard (MCLab) and loaded onto a 96-well plate. The samples were sent for fragment analysis by capillary electrophoresis to the UMass Chan Medical School Molecular Biology Core Laboratory using an ABI3730XL DNA Fragment Analyzer with capillaries loaded with POP-7 polymer and with an injection voltage of 12.5 kV. Data collection was performed with GeneMapper software (ABI). Data were exported as.fsa files and were analyzed (aligning to ladder and background correction) in GeneMarker 3.0.1 software (SoftGenetics) running in demo mode. Screen captures of traces were taken and traces were integrated using the “Quantification” feature and manually adjusting sliders to include the desired nucleotide range.

[2] = biological target: translation of nanoluciferase mRNA in rabbit reticulocyte lysates; assay: Nanoluciferase mRNA translation in rabbit reticulocyte lysate, inhibitor preincubated 5 min before mRNA; assay type: biochemical; conditions: for IC50: same extracts as the DPR assay, read-out: IC50 in RRL extracts, range stated in the response to reviewers
Description: Rabbit reticulocyte lysates (RRL, Promega) were used to investigate the inhibition of translation by DPR proteins. We independently monitored translation of two mRNAs encoding non-homologous proteins of different lengths: nanoluciferase[71] and firefly luciferase. To measure the IC50s of the translational inhibitors cycloheximide (Akros Organics), harringtonine (AbCam), GDPCP (Jena Biosciences), PR20 and GR20, we monitored the translation of nanoluciferase mRNA in nuclease-treated RRL (Promega). […] Next, 10 ng/μl (final concentration) 6xhis-Nanoluciferase mRNA flanked with the 5'- and 3'-UTR from rabbit beta-globin[48] was added and the luminescence reactions were continuously measured by an Infinite m1000 pro microplate reader (Tecan) for 15 min at 30 °C. The 1st derivative of the luminescence reactions was determined in Prism 8 (GraphPad Software, LLC) and the maximum was identified and the mean of three maximums from independent experiments for each inhibitor was taken as the rate. The rates were plotted versus inhibitors concentration, and the plots were fitted in Prism 8 (GraphPad Software, LLC) to a 3-parameter inhibition model (Y = baseline + (max-baseline)/(1 + X/IC50)) to obtain the IC50 values where the baseline was constrained to 0. This procedure was modified to separate translation initiation from translation elongation by changing the time of addition of the inhibitors to ~300 s after mRNA addition when RLUs had reached a value of ~50,000. Here, the maximum of the first derivative was taken in the 2nd or later measurement taken after inhibitor addition.
The following additional controls indicate that DPR-induced changes in fluorescence were caused by translation inhibition.

rabbit 80S ribosomes = assay: Kinetic peptidyl transfer (puromycin) assay on rabbit 80S ribosomes; assay type: biochemical
Description: To test the effects of PR20 on the mammalian peptidyl transferase, 80S ribosomes were purified from rabbit reticulocyte lysate (Green Hectares) and dissociated into 40S and 60S subunits as described in the section entitled “Cryo-EM complex of mammalian 80S ribosome with PR20”. A model leaderless mRNA fragment placing the AUG codon in the P-site and the UUC codon in the A site (CCAC AUG UUC CCCCCCCCCCCCCCCCCC), was synthesized by IDT. The 80S•mRNA•fMet-tRNA^fMet complex with PRn (where n = 10, 20, or 40) or GR20 was assembled as follows. one micrometer 60S subunit was mixed with the DPR (starting with the initial DPR concentration of 33x relative to its final concentration in the reaction) in Assembly Buffer containing 20 mM Tris-acetate (pH 7.0), 100 mM KOAc, 10 mM Mg(OAc)2, and the mixture was incubated for 5 min at 30 °C. […] 1095 nM [^35S]-fMet-tRNA^fMet and the 60S solution were added (0.5 volumes of the 40S solution), resulting in the following concentrations: 330 nM 60S, 400 nM 40S, 730 nM tRNA, 11 µM mRNA and 11x of final concentration of a DPR in the buffer (20 mM Tris-acetate (pH 7.0), 100 mM KOAc, 10 mM Mg(OAc)2). The solution was incubated for 5 min at 30 °C. The solution was diluted ten times with the same buffer, then puromycin (prepared in the same buffer) was added and time progress curves were recorded.
(§1) The kinetics of puromycin reaction on the 70S or 80S ribosomes were recorded and analyzed essentially as described. An aliquot (4.5 μl) of the complex prior to addition of puromycin was quenched in 30 μl of saturated MgSO4 in 0.1 M NaOAc to represent the zero-time point. Five microliters of 500 µM puromycin (in the same buffer as that used for the ribosomal complex) was added to 45 μl of the complex to initiate the reaction, yielding estimated final concentrations: 30 nM for the ribosome, 1 µM mRNA, 66 nM [^35S]-fMet-tRNA^fMet, 50 µM puromycin, and varying concentrations of PRn and GRn peptides, from 30 nM to 2 μM. After 6, 15, 30, 90 s, and 5, 15, 30, 60, and (for slower reactions) 180 min, 5-μl aliquots were quenched in 30 μl of saturated MgSO4 in 0.1 M NaOAc. All quenched samples were extracted with 700 μl ethyl-acetate. 600 μl of the extract were mixed with 3.5 ml of Econo-Safe scintillation cocktail (RPI), and the amount of released [^35S]-labeled dipeptide was measured for each time point using a scintillation counter (Beckman Coulter, Inc.).
(§2) All time progress curves were recorded in duplicates, using independently prepared 70S or 80S complexes. Reaction rates were calculated using single-exponential or double-exponential (80S complexes) regressions for different concentrations of PRn and GRn using GraphPad Prism 8. Hyperbola fitting in Gnuplot was used to derive apparent Ki-values.

E. coli 70S ribosomes = assay: Kinetic peptidyl transfer (puromycin) assay on E. coli 70S ribosomes; assay type: biochemical; conditions: for Ki: n = 2
Experimental: The effects of GRn or PRn on peptide bond formation in E. coli ribosome were tested in an in vitro assay that reacts the 70S ribosome loaded with [^35S]-fMet-tRNA^fMet in the P-site with puromycin, an A-site tRNA mimic, and measures the release of the resulting dipeptide containing formyl-methionine covalently bonded to puromycin, as described. E. coli tRNA^fMet (Chemical Block) was aminoacylated with [^35S]-N-formyl-L-methionine (Perkin Elmer) as described. 70S ribosomes were prepared from E. coli (MRE600) as described. 70S ribosomes were stored in the ribosome-storage buffer (20 mM Tris-HCl, pH 7.0; 100 mM NH4Cl; 20 mM MgCl2) at –80 °C. A model mRNA fragment, containing the Shine-Dalgarno sequence and a spacer to position the AUG codon in the P-site and the UUC codon in the A site (GGCAAGGAGGUAAAAAUGUUC AAAAAA), was synthesized by IDT. 70S•mRNA•fMet-tRNA^fMet complexes with GRn (where n = 4, 10 or 20) or PRn (where n = 4, 10, 20 or 40) were formed as follows. 330 nM 70S ribosomes were incubated with 11 µM mRNA in buffer containing 20 mM Tris-acetate (pH 7.0), 100 mM NH4OAc, 12 mM Mg(OAc)2, for 2 min at 37 °C. 730 nM [^35S]-fMet-tRNA^fMet was added and incubated for 5 min at 37 °C. The solution was diluted 9.6-fold with the same buffer, followed by addition of a GRn or PRn repeat peptide (22x relative to its final concentration). The complex was incubated for 5 min at 37 °C prior to addition of puromycin dissolved in the same buffer (see below).
as §1, §2

[3] = biological target: Oryctolagus cuniculus (rabbit) 80S ribosome (rabbit (Oryctolagus cuniculus)) (UniProt G1SVW5)
[4] = biological target: Escherichia coli 70S ribosome (E. coli)
[5] = 30 nM 70S, 50 µM puromycin, 37 °C, read-out: apparent inhibition constant (Ki) of peptidyl transfer

**Q.** For `C[C@@H]1C[C@@H]([C@H](O)CC2CC(=O)NC(=O)C2)C(=O)[C@@H](C)C1` [Cycloheximide], which “site of ribosome accumulation, toe-printing of polysome fractions” value [1] is on record?
**A.** The value was “accumulate within the open reading frame”.

**Q.** What about the “Ratio (START to CDS)” value [1] of the same molecule?
**A.** The value was 3.435.

**Q.** And the “Normalized ratio START/ORF” value [1]?
**A.** The value was 1.274.

**Q.** And the “normalized ratio START to CDS, MEAN” value ([1]; Fig. 2g)?
**A.** Its value is 0.5607.

**Q.** And the “normalized ratio START to CDS, MEAN” value ([1]; Fig. 2h independent repeat)?
**A.** The value was 0.326.

**Q.** What about the IC50 [2] of the same molecule?
**A.** Its IC50 is 10 to 500 nM.

**Q.** How did the “site of ribosome accumulation, toe-printing of polysome fractions” value [1] turn out when `COC(=O)C[C@](O)(CCC(C)(C)O)C(=O)O[C@@H]1C(OC)=C[C@]23CCCN2CCc2cc4c(cc2[C@H]13)OCO4` [Harringtonine] was run?
**A.** The value was “accumulate at the start codon”.

**Q.** And the “Ratio (START to CDS)” value [1]?
**A.** The value was 6.47.

**Q.** What about the “Normalized ratio START/ORF” value [1] of the same molecule?
**A.** The value was 2.399.

**Q.** What about the “normalized ratio START to CDS, MEAN” value ([1]; Fig. 2g) of the same molecule?
**A.** Its value is 9.437.

**Q.** And the “normalized ratio START to CDS, MEAN” value ([1]; Fig. 2h independent repeat)?
**A.** The value was 4.139.

**Q.** And the IC50 [2]?
**A.** The IC50 was 10 to 500 nM.

**Q.** Which “effect on peptidyl transfer on rabbit 80S” value (rabbit 80S ribosomes; 50 µM) does the source give for `N=C(N)NCCC[C@H](N)C(=O)O` [L-arginine, reference compound] here?
**A.** Its value is “does not”.

**Q.** What about the “effect on peptidyl transfer on 70S” value (E. coli 70S ribosomes; 50 µM (Supplementary Fig. 2b)) of the same molecule?
**A.** Its value is “does not affect the peptidyl transfer reaction”.

**Q.** What about the “effect on nanoluciferase translation in RRL” value ([2]; 100 μM) of the same molecule?
**A.** Its value is “not inhibited”.

**Q.** What does the source list for “GR20 (poly-glycine-arginine, 20 repeats) (peptide)”?
**A.** IC50 of translation of nanoluciferase mRNA in 33% rabbit reticulocyte lysate [3]: 425 nM; IC50 of translation of nanoluciferase mRNA in 50% rabbit reticulocyte lysate [3]: 640 nM; apparent inhibition constant (Ki) of peptidyl transfer from [35S]-fMet-tRNAfMet to puromycin on E. coli 70S ribosomes [4]: 164 nM

**Q.** Which Ki (E. coli 70S ribosomes; [5]) does the source give for GRGRGRGR [GR4] here?
**A.** The Ki was over 2000 nM.

**Q.** What about the “effect on peptidyl transfer on 70S” value (E. coli 70S ribosomes; 2 µM) of the same molecule?
**A.** The value was “fail to inhibit peptidyl transfer”.

**Q.** Which results are given for PRPRPRPR [PR4]?
**A.** Ki (E. coli 70S ribosomes; [5]): > 2000 nM; effect on peptidyl transfer on 70S (E. coli 70S ribosomes; 2 µM): fail to inhibit peptidyl transfer

**Q.** PRPRPRPRPRPRPRPRPRPR [PR10] was tested. Which “effect on peptidyl transfer on rabbit 80S” value (rabbit 80S ribosomes; 2 µM, n=2) did it give?
**A.** Its value is “no inhibition”.

**Q.** And the Ki (E. coli 70S ribosomes; source data of Fig. 3b, unit printed in the legend b16 only, read-out: Ki, app of fMet-Pmn release from 70S)?
**A.** Its Ki is 1050 nM.

**Q.** Which apparent inhibition constant (Ki) of peptidyl transfer to puromycin on E. coli 70S ribosomes [4] does the source give for GRGRGRGRGRGRGRGRGRGR [GR10 (poly-glycine-arginine, 10 repeats)] here?
**A.** Its apparent inhibition constant (Ki) of peptidyl transfer to puromycin on E. coli 70S ribosomes is 600 nM.

**Q.** With PRPRPRPRPRPRPRPRPRPR [PR10 (poly-proline-arginine, 10 repeats)] as the molecule, how does the apparent inhibition constant (Ki) of peptidyl transfer to puromycin on E. coli 70S ribosomes [4] read?
**A.** The apparent inhibition constant (Ki) of peptidyl transfer to puromycin on E. coli 70S ribosomes was 1000 nM.

B1: PR40: poly-PR peptide of 40 repeats (peptide)
peptide: PRPRPRPRPRPRPRPRPRPRPRPRPRPRPRPRPRPRPRPRPRPRPRPRPRPRPRPRPRPRPRPRPRPRPRPRPRPRPRPR
**Q.** With B1 as the molecule, how does the Ki (rabbit 80S ribosomes; rabbit 80S) read?
**A.** Its Ki is at most 30 nM.

**Q.** And the Ki (E. coli 70S ribosomes; [5])?
**A.** The Ki was at most 30 nM.
